Results published in patent US10959432B2, “Microbiocidal oxadiazole derivatives” (Syngenta Participations AG, priority 2016, dated 2021).

What was measured:
Phakopsora pachyrhizi = test: Fungicidal activity against Phakopsora pachyrhizi / soybean / leaf disc preventative (Asian soybean rust); assay type: in vivo; details: foliar, 200 ppm in the applied formulation, soybean leaf disks, preventative (inoculated one day after application), assessed 12 to 14 days after application, read-out: disease control compared to untreated control leaf disks
Outline: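 Preventative test: compound applied to soybean leaf discs a day before spore inoculation of the lower surface. Discs kept at 20° C and 75% rh, first 24-36 h in darkness, then under 12 h light/day; disease control relative to untreated discs rated 12 to 14 days post-application.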

[1] = system: Puccinia recondita f. sp. tritici; test: Fungicidal activity against Puccinia recondita f. sp. tritici / wheat / leaf disc curative (brown rust); assay type: in vivo; details: foliar, 200 ppm in the applied formulation, wheat leaf segments cv. Kanzler, curative (applied 1 day after inoculation), assessed 6 to 8 days after application, read-out: disease control compared to untreated control leaf disks
Outline: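 Curative test: compound, diluted from DMSO stock into water, applied one day after spore inoculation of wheat (cv. Kanzler) leaf segments kept on agar in darkness at 19° C. and 75% RH. Climate-cabinet incubation (19° C., 75% RH, 12 h photoperiod); disease control relative to untreated read 6–8 days post-application.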

Uromyces viciae-fabae = test: Fungicidal activity against Uromyces viciae-fabae / field bean / leaf disc preventative (faba-bean rust); assay type: in vivo; details: foliar, 288 h, 100 ppm in the applied formulation, field bean leaf discs, preventative (inoculated two hours after application), assessed 12 days after application, read-out: disease control compared to untreated control leaf discs
Experimental: Leaf disks or leaf segments of various plant species are cut from plants grown in a greenhouse. The cut leaf disks or segments are placed in multiwell plates (24-well format) onto water agar. The leaf disks are sprayed with a test solution before (preventative) or after (curative) inoculation. Compounds to be tested are prepared as DMSO solutions (max. 10 mg/ml) which are diluted to the appropriate concentration with 0.025% Tween20 just before spraying. The inoculated leaf disks or segments are incubated under defined conditions (temperature, relative humidity, light, etc.) according to the respective test system. A single evaluation of disease level is carried out 3 to 14 days after inoculation, depending on the pathosystem. Percent disease control relative to the untreated check leaf disks or segments is then calculated. General Examples of Liquid Culture Tests in Well Plates:
Example 5: Fungicidal Activity Against Uromyces viciae-fabae/Field Bean/Leaf Disc Preventative (Faba-Bean Rust)
Field bean leaf discs are placed on water agar in multiwell plates (96-well format) and 10 μl of the formulated test compound diluted in acetone and a spreader pipetted onto the leaf disc. Two hours after application leaf discs are inoculated by spraying a spore suspension on the lower leaf surface. The leaf discs are incubated in a climate cabinet at 22° C. with 18 hour day and 70% relative humidity. The activity of a compound is assessed as percent disease control compared to untreated when an appropriate level of disease damage appears in untreated check leaf disks (12 days after application).
The following compounds at 100 ppm in the applied formulation give at least 80% disease control in this test when compared to untreated control leaf discs under the same conditions, which show extensive disease development.

[2] = system: Puccinia recondita f. sp. tritici; test: Fungicidal activity against Puccinia recondita f. sp. tritici / wheat / leaf disc preventative (brown rust); assay type: in vivo; details: foliar, 200 ppm in the applied formulation, wheat leaf segments cv. Kanzler, preventative (inoculated 1 day after application), assessed 7 to 9 days after application, read-out: disease control compared to untreated control leaf disks
Outline: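 Preventative leaf-segment test: compound sprayed at 200 ppm onto wheat (cv. Kanzler) segments, brown rust spores applied 1 day after. Kept at 19C and 75% rh under 12 h light/dark cycles; disease control versus untreated check read 7 to 9 days post-application.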

[3] = system: Glomerella laqenarium (Colletotrichum lagenarium); test: Fungicidal activity against Glomerella lagenarium (Colletotrichum lagenarium) liquid culture / cucumber / preventative (anthracnose); assay type: cell-based; details: Colletotrichum orbiculare; 20 ppm in the applied formulation; liquid culture in PDB, 24° C., 3 to 4 days after application; read-out: disease control compared to untreated control (inhibition of growth measured photometrically)
Outline: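 Test compound, applied from DMSO solution, is combined with PDB containing conidia taken from cryogenic storage. After 3–4 days at 24 °C, growth is measured photometrically and antifungal activity expressed as percent relative to untreated control.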

CC1(NC(=O)c2ccc(-c3noc(C(F)(F)F)n3)cc2F)CCC1 [Compound 2b.12, 2-fluoro-N-(1-methylcyclobutyl)-4-[5-(trifluoromethyl)-1,2,4-oxadiazol-3-yl]benzamide]
≥ 80%: pest or weed control at 200 ppm (Phakopsora pachyrhizi) | pest or weed control at 200 ppm [1] | pest or weed control at 100 ppm (Uromyces viciae-fabae) | pest or weed control at 200 ppm [2]

O=C(NCC1CCC1)c1ccc(-c2noc(C(F)(F)F)n2)cc1F [Compound 2b.11, N-(cyclobutylmethyl)-2-fluoro-4-[5-(trifluoromethyl)-1,2,4-oxadiazol-3-yl]benzamide]
≥ 80%: pest or weed control at 200 ppm (Phakopsora pachyrhizi) | pest or weed control at 200 ppm [1] | pest or weed control at 100 ppm (Uromyces viciae-fabae) | pest or weed control at 200 ppm [2]

CC1(C)OCC(CNC(=O)c2ccc(-c3noc(C(F)(F)F)n3)cc2F)O1 (centres unmarked) [Compound 1b.6, N-[(2,2-dimethyl-1,3-dioxolan-4-yl)methyl]-2-fluoro-4-[5-(trifluoromethyl)-1,2,4-oxadiazol-3-yl]benzamide]
≥ 80%: pest or weed control at 200 ppm (Phakopsora pachyrhizi) | pest or weed control at 200 ppm [1] | pest or weed control at 100 ppm (Uromyces viciae-fabae) | pest or weed control at 200 ppm [2]

Cc1ccsc1CN(C)C(=O)c1ccc(-c2noc(C(F)(F)F)n2)cc1F [Compound 5b.3, 2-fluoro-N-methyl-N-[(3-methyl-2-thienyl)methyl]-4-[5-(trifluoromethyl)-1,2,4-oxadiazol-3-yl]benzamide]
≥ 80%: pest or weed control at 200 ppm (Phakopsora pachyrhizi) | pest or weed control at 200 ppm [1] | pest or weed control at 100 ppm (Uromyces viciae-fabae) | inhibition at 20 ppm [3]

CC1(NC(=O)c2ccc(-c3noc(C(F)(F)F)n3)cc2)CCC1 [Compound 2a.4, N-(1-methylcyclobutyl)-4-[5-(trifluoromethyl)-1,2,4-oxadiazol-3-yl]benzamide]
≥ 80%: pest or weed control at 200 ppm (Phakopsora pachyrhizi) | pest or weed control at 200 ppm [1] | pest or weed control at 100 ppm (Uromyces viciae-fabae) | pest or weed control at 200 ppm [2]

CN(CC1OCCO1)C(=O)c1ccc(-c2noc(C(F)(F)F)n2)cc1F [Compound 1b.2, N-(1,3-dioxolan-2-ylmethyl)-2-fluoro-N-methyl-4-[5-(trifluoromethyl)-1,2,4-oxadiazol-3-yl]benzamide]
≥ 80%: pest or weed control at 200 ppm (Phakopsora pachyrhizi) | pest or weed control at 200 ppm [1] | pest or weed control at 100 ppm (Uromyces viciae-fabae) | pest or weed control at 200 ppm [2]

O=C(NCC1COCCO1)c1ccc(-c2noc(C(F)(F)F)n2)cc1Cl (centres unmarked) [Compound 1b.13, 2-chloro-N-(1,4-dioxan-2-ylmethyl)-4-[5-(trifluoromethyl)-1,2,4-oxadiazol-3-yl]benzamide]
≥ 80%: pest or weed control at 200 ppm [1] | pest or weed control at 100 ppm (Uromyces viciae-fabae) | pest or weed control at 200 ppm [2]

CCCN(C(=O)c1ccc(-c2noc(C(F)(F)F)n2)cc1)C1CCN(OC)CC1 [Compound 1a.5, N-(1-methoxy-4-piperidyl)-N-propyl-4-[5-(trifluoromethyl)-1,2,4-oxadiazol-3-yl]benzamide]
≥ 80%: pest or weed control at 200 ppm [1] | pest or weed control at 100 ppm (Uromyces viciae-fabae) | inhibition at 20 ppm [3]

CN(C(=O)c1ccc(-c2noc(C(F)(F)F)n2)cc1)C1CCOC1 (centres unmarked) [Compound 1a.7, N-methyl-N-tetrahydrofuran-3-yl-4-[5-(trifluoromethyl)-1,2,4-oxadiazol-3-yl]benzamide]
≥ 80%: pest or weed control at 200 ppm [1] | pest or weed control at 100 ppm (Uromyces viciae-fabae) | pest or weed control at 200 ppm [2]

O=C(NCC1CCOC1)c1ccc(-c2noc(C(F)(F)F)n2)cc1Cl (centres unmarked) [Compound 1b.14, 2-chloro-N-(tetrahydrofuran-3-ylmethyl)-4-[5-(trifluoromethyl)-1,2,4-oxadiazol-3-yl]benzamide]
≥ 80%: pest or weed control at 200 ppm (Phakopsora pachyrhizi) | pest or weed control at 100 ppm (Uromyces viciae-fabae) | inhibition at 20 ppm [3] | pest or weed control at 200 ppm [2]

CN(CC1CCCCO1)C(=O)c1ccc(-c2noc(C(F)(F)F)n2)cc1F (centres unmarked) [Compound 1b.10, 2-fluoro-N-methyl-N-(tetrahydropyran-2-ylmethyl)-4-[5-(trifluoromethyl)-1,2,4-oxadiazol-3-yl]benzamide]
≥ 80%: pest or weed control at 200 ppm [1] | pest or weed control at 100 ppm (Uromyces viciae-fabae)

COC(=O)CNC(=O)c1ccc(-c2noc(C(F)(F)F)n2)cc1 [Compound 3a.4, methyl 2-[[4-[5-(trifluoromethyl)-1,2,4-oxadiazol-3-yl]benzoyl]amino]acetate]
≥ 80%: pest or weed control at 200 ppm (Phakopsora pachyrhizi) | pest or weed control at 100 ppm (Uromyces viciae-fabae) | inhibition at 20 ppm [3] | pest or weed control at 200 ppm [2]

CCN(C(=O)c1ccc(-c2noc(C(F)(F)F)n2)cc1)C1CCN(OC)CC1 [Compound 1a.4, N-ethyl-N-(1-methoxy-4-piperidyl)-4-[5-(trifluoromethyl)-1,2,4-oxadiazol-3-yl]benzamide]
≥ 80%: pest or weed control at 200 ppm [1] | pest or weed control at 100 ppm (Uromyces viciae-fabae) | inhibition at 20 ppm [3] | pest or weed control at 200 ppm [2]

COC(=O)C1(NC(=O)c2ccc(-c3noc(C(F)(F)F)n3)cc2)CCCN(OC)C1 (centres unmarked) [Compound 1a.8, methyl 1-methoxy-3-[[4-[5-(trifluoromethyl)-1,2,4-oxadiazol-3-yl]benzoyl]amino]piperidine-3-carboxylate]
≥ 80%: pest or weed control at 200 ppm [1] | pest or weed control at 100 ppm (Uromyces viciae-fabae)

CN(C(=O)c1ccc(-c2noc(C(F)(F)F)n2)cc1F)C1CCOC1 (centres unmarked) [Compound 1b.7, 2-fluoro-N-methyl-N-tetrahydrofuran-3-yl-4-[5-(trifluoromethyl)-1,2,4-oxadiazol-3-yl]benzamide]
≥ 80%: pest or weed control at 200 ppm [1] | pest or weed control at 100 ppm (Uromyces viciae-fabae)

O=C(Nc1cn[nH]c1)c1ccc(-c2noc(C(F)(F)F)n2)cc1F [Compound 5b.7, 2-fluoro-N-(1H-pyrazol-4-yl)-4-[5-(trifluoromethyl)-1,2,4-oxadiazol-3-yl]benzamide]
≥ 80%: pest or weed control at 200 ppm (Phakopsora pachyrhizi) | pest or weed control at 100 ppm (Uromyces viciae-fabae) | inhibition at 20 ppm [3] | pest or weed control at 200 ppm [2]

CC(NC(=O)c1ccc(-c2noc(C(F)(F)F)n2)cc1F)C1(C)OCCO1 (centres unmarked) [Compound 1b.12, 2-fluoro-N-[1-(2-methyl-1,3-dioxolan-2-yl)ethyl]-4-[5-(trifluoromethyl)-1,2,4-oxadiazol-3-yl]benzamide]
≥ 80%: pest or weed control at 200 ppm [1] | pest or weed control at 100 ppm (Uromyces viciae-fabae)

O=C(NCC1CCC1)c1ccc(-c2noc(C(F)(F)F)n2)cc1 [Compound 2a.3, N-(cyclobutylmethyl)-4-[5-(trifluoromethyl)-1,2,4-oxadiazol-3-yl]benzamide]
≥ 80%: pest or weed control at 200 ppm (Phakopsora pachyrhizi) | pest or weed control at 200 ppm [1] | pest or weed control at 100 ppm (Uromyces viciae-fabae) | pest or weed control at 200 ppm [2]

O=C(NC1CCCC1(F)F)c1ccc(-c2noc(C(F)(F)F)n2)cc1F (centres unmarked) [Compound 2b.17, N-(2,2-difluorocyclopentyl)-2-fluoro-4-[5-(trifluoromethyl)-1,2,4-oxadiazol-3-yl]benzamide]
≥ 80%: pest or weed control at 200 ppm (Phakopsora pachyrhizi) | pest or weed control at 200 ppm [1] | pest or weed control at 100 ppm (Uromyces viciae-fabae) | pest or weed control at 200 ppm [2]

CN(C(=O)c1ccc(-c2noc(C(F)(F)F)n2)cc1)C1CCSC1 (centres unmarked) [Compound 1a.9, N-methyl-N-tetra-hydrothiophen-3-yl-4-[5-(trifluoromethyl)-1,2,4-oxadiazol-3-yl]benzamide]
≥ 80%: pest or weed control at 200 ppm [1] | pest or weed control at 100 ppm (Uromyces viciae-fabae)

CON1CCC(N(C)C(=O)c2ccc(-c3noc(C(F)(F)F)n3)cc2)CC1 [Compound 1a.3, N-(1-methoxy-4-piperidyl)-N-methyl-4-[5-(trifluoromethyl)-1,2,4-oxadiazol-3-yl]benzamide]
≥ 80%: pest or weed control at 200 ppm [1] | pest or weed control at 100 ppm (Uromyces viciae-fabae) | inhibition at 20 ppm [3] | pest or weed control at 200 ppm [2]
